Values quoted from earlier work, collected in patent US20260232582A1, “PHARMACEUTICAL COMPOSITION OF ENSIFENTRINE WITH PHARMACEUTICALLY ACCEPTABLE PROPELLANTS” (CIPLA LIMITED, priority 2023, published 2026).

Columns and labels:
subjects = settings: clinical trials involving more than 2,200 subjects
COPD patients = settings: Phase 2; DPI and pMDI formulations

COc1cc2c(cc1OC)-c1c/c(=N\c3c(C)cc(C)cc3C)n(CCNC(N)=O)c(=O)n1CC2 [Ensifentrine]
Tolerability in clinical trials (subjects): well tolerated | Primary endpoint (improvements in lung function) (COPD; nebulized, both ENHANCE-1 and ENHANCE-2 trials): met the primary endpoint | Rate and risk of COPD exacerbations (COPD; pooled analysis from ENHANCE-1 and ENHANCE-2): significantly reduced | Lung function in COPD patients (COPD patients): significant improvements in lung function
